Experimental data from PubChem BioAssay AID330 (DTP/NCI, 2004).
Where “and” joins values, the source holds several entries; their conditions need not be identical. Equal entries are not always repeated. Inconclusive results and toxic doses are left out.

Tested on: P388 leukemia ip, CD2F1 mice, survival T/C
Test: NCI In Vivo Anticancer Drug Screen. Data for tumor model P388 Leukemia (intraperitoneal) in CD2F1 (CDF1) mice
Settings: endpoint: median survival time, higher = longer survival
Summary of the method: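 Mice carrying the transplanted tumor received test compound or vehicle. Survival was recorded in each group, and the value is the treated-group measurement divided by that of the vehicle-treated control group.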

[1] = dose: 60.0 mg/kg/injection, schedule: Q01DX005 (ip), vehicle: saline with Tween-80
[2] = dose: 120.0 mg/kg/injection, schedule: Q01DX005 (ip), vehicle: saline with Tween-80
[3] = dose: 240.0 mg/kg/injection, schedule: Q01DX005 (ip), vehicle: saline with Tween-80
[4] = dose: 12.5 mg/kg/injection, schedule: Q01DX009 (ip), vehicle: saline with Tween-80
[5] = dose: 25.0 mg/kg/injection, schedule: Q01DX009 (ip), vehicle: saline with Tween-80
[6] = dose: 50.0 mg/kg/injection, schedule: Q01DX009 (ip), vehicle: saline with Tween-80

**Q.** Which results are given for `C[N+]1(CCC(=O)c2ccccc2)CCCCC1`?
**A.** T/C (dose: 12.5 mg/kg/injection, schedule: Q01DX009 (ip), vehicle: saline): 97 % of control; T/C (dose: 25.0 mg/kg/injection, schedule: Q01DX009 (ip), vehicle: saline): 107 % of control

**Q.** What does the source list for `CCN(CC)CCCC(C)NC(Cc1ccccc1)c1cccc2ccccc12` (centres undefined)?
**A.** T/C (dose: 25.0 mg/kg/injection, schedule: Q01DX005 (ip), vehicle: suspension in saline): 100 % of control; T/C (dose: 50.0 mg/kg/injection, schedule: Q01DX005 (ip), vehicle: suspension in saline): 106 % of control

**Q.** Which T/C [1] does the source give for `C=CC(C)n1[nH]c(=O)n(-c2ccc(O)c([N+](=O)[O-])c2)c1=O` (centres undefined) here?
**A.** 100 % of control

**Q.** And the T/C [2]?
**A.** 98 % of control

**Q.** And the T/C [3]?
**A.** 94 % of control

**Q.** `CC(C)(C)NC(=O)N1C2C3CCC(C)(OC3(C)C)C21` (centres undefined) was tested. Which T/C (dose: 50.0 mg/kg/injection, schedule: Q01DX005 (ip), vehicle: saline with Tween-80) did it give?
**A.** 98 % of control

**Q.** And the T/C (dose: 100.0 mg/kg/injection, schedule: Q01DX005 (ip), vehicle: saline with Tween-80)?
**A.** 99 % of control

**Q.** `C=C1C(=O)C23OC2C1CCC(=O)C1(C)CC[C@H](OC(C)=O)C(C)(C)[C@H]1CC3=O` (some centres undefined) was tested. Which T/C (dose: 2.5 mg/kg/injection, schedule: Q01DX005 (ip), vehicle: Klucel (hydroxypropylcellulose) (HPC)) did it give?
**A.** 111 % of control

**Q.** And the T/C (dose: 5.0 mg/kg/injection, schedule: Q01DX005 (ip), vehicle: Klucel (hydroxypropylcellulose) (HPC))?
**A.** 107 % of control

**Q.** What about the T/C (dose: 10.0 mg/kg/injection, schedule: Q01DX005 (ip), vehicle: Klucel (hydroxypropylcellulose) (HPC)) of the same compound?
**A.** 107 % of control

**Q.** `CCOC(=O)c1ccc2[nH]c(-c3ccc(S(=O)(=O)F)cc3)cc(=O)c2c1` was tested. Which T/C [4] did it give?
**A.** 87 % of control

**Q.** What about the T/C [5] of the same compound?
**A.** 93 % of control

**Q.** What about the T/C [6] of the same compound?
**A.** 96 % of control

**Q.** What about the T/C (dose: 100.0 mg/kg/injection, schedule: Q01DX009 (ip), vehicle: saline with Tween-80) of the same compound?
**A.** 93 % of control

**Q.** Which results are given for `C=C/C(C)=C/[C@H](C)C(=O)C[C@H](O)CC1CC(=O)NC(=O)C1`?
**A.** T/C (dose: 6.25 mg/kg/injection, schedule: Q01DX009 (ip), vehicle: saline with Tween-80): 102 % of control; T/C (dose: 6.25 mg/kg/injection, schedule: Q04DX003 (ip), vehicle: saline with Tween-80): 111 % of control; T/C [4]: 118 % of control; T/C (dose: 12.5 mg/kg/injection, schedule: Q04DX003 (ip), vehicle: saline with Tween-80): 108 % of control; T/C [5]: 155 % of control; T/C (dose: 25.0 mg/kg/injection, schedule: Q04DX003 (ip), vehicle: saline with Tween-80): 111 % of control; T/C (dose: 35.0 mg/kg/injection, schedule: Q01DX009 (ip), vehicle: saline with Tween-80): 151 % of control; T/C [6]: 150 % of control; T/C (dose: 50.0 mg/kg/injection, schedule: Q04DX003 (ip), vehicle: saline with Tween-80): 111 % of control; T/C (dose: 75.0 mg/kg/injection, schedule: Q01DX009 (ip), vehicle: saline with Tween-80): 168 % of control; T/C (dose: 75.0 mg/kg/injection, schedule: Q01DX009 (ip), vehicle: saline): 158 % of control; T/C (dose: 100.0 mg/kg/injection, schedule: Q04DX003 (ip), vehicle: saline with Tween-80): 121 % of control; T/C (dose: 150.0 mg/kg/injection, schedule: Q01DX009 (ip), vehicle: saline): 106 % of control; T/C (dose: 200.0 mg/kg/injection, schedule: Q04DX003 (ip), vehicle: saline with Tween-80): 101 % of control and 121 % of control

**Q.** What does the source list for `O=C(NCC(=O)N1CCCC1)N/N=C/c1ccccc1O`?
**A.** T/C (dose: 50.0 mg/kg/injection, schedule: Q01DX005 (ip), vehicle: Klucel (hydroxypropylcellulose) (HPC)): 102 % of control; T/C (dose: 100.0 mg/kg/injection, schedule: Q01DX005 (ip), vehicle: Klucel (hydroxypropylcellulose) (HPC)): 102 % of control; T/C (dose: 200.0 mg/kg/injection, schedule: Q01DX005 (ip), vehicle: Klucel (hydroxypropylcellulose) (HPC)): 98 % of control

**Q.** What does the source list for `O=C(O)c1ccc(N=NNc2ccc(C(=O)O)cc2)cc1`?
**A.** T/C (dose: 50.0 mg/kg/injection, schedule: Q01DX009 (ip), vehicle: Klucel (hydroxypropylcellulose) (HPC)): 96 % of control; T/C (dose: 100.0 mg/kg/injection, schedule: Q01DX009 (ip), vehicle: Klucel (hydroxypropylcellulose) (HPC)): 99 % of control; T/C (dose: 200.0 mg/kg/injection, schedule: Q01DX009 (ip), vehicle: Klucel (hydroxypropylcellulose) (HPC)): 95 % of control; T/C (dose: 400.0 mg/kg/injection, schedule: Q01DX009 (ip), vehicle: Klucel (hydroxypropylcellulose) (HPC)): 96 % of control

**Q.** What does the source list for `O=C(O)CCNCCC(=O)O`?
**A.** T/C (dose: 50.0 mg/kg/injection, schedule: Q04DX003 (ip), vehicle: saline): 96 % of control; T/C (dose: 100.0 mg/kg/injection, schedule: Q04DX003 (ip), vehicle: saline): 123 % of control and 97 % of control; T/C (dose: 200.0 mg/kg/injection, schedule: Q04DX003 (ip), vehicle: saline): 100 % of control; T/C (dose: 400.0 mg/kg/injection, schedule: Q04DX003 (ip), vehicle: saline): 95 % of control

**Q.** For `Cn1c(N2CCOCC2)cc2nc3ccccc3n2c1=O`, which T/C [1] is on record?
**A.** 96 % of control

**Q.** What about the T/C [2] of the same compound?
**A.** 98 % of control

**Q.** What about the T/C [3] of the same compound?
**A.** 96 % of control
